Measured values from US8822503B2, “2-pyridone compounds” (Taisho Pharmaceutical Co., Ltd, priority 2009, dated 2014).

biological target: T1, human liver GK (Homo sapiens, UniProt P35557); experiment: GK activation test; type: biochemical; conditions: test compound concentration needed to activate 50% of maximum activation ability; 4 mM 14C-labeled glucose, 2 mM ATP, room temperature, 20 minutes
T1 construct: GST (glutathione S-transferase) (N); made in house; host or cells: E. coli
T1 sequence (P35557 1-466 isoform P35557-2): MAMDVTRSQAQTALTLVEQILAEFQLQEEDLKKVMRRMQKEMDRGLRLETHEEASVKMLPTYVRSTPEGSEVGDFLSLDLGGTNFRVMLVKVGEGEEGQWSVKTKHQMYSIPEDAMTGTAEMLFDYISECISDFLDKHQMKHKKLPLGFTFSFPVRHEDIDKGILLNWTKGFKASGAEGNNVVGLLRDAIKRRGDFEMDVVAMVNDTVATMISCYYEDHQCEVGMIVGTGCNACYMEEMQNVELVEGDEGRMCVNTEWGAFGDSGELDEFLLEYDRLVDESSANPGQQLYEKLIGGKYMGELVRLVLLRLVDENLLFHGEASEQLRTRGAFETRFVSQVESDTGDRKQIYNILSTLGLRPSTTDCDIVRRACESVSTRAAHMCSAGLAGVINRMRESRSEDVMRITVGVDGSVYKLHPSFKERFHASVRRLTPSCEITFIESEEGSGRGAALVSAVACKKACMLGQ
Description: The GK activation test for the test compounds was performed by the method of Irwin A. Rose et al. (J. Biol. Chem. 1964 January; 239:12-7) with partial modifications.
The enzyme source used in this assay, human liver GK, was expressed in E. coli as a fusion protein with GST (glutathione S-transferase) added to the amino terminus and was purified using Glutathione Sepharose 4B (Amersham Biosciences).
The test was carried out using flat-bottom 96-well plates (Sumitomo Bakelite Co., Ltd.). A solution of the test compound in dimethyl sulfoxide (DMSO) and DMSO as a control were added to each well of the plates at a final DMSO concentration of 1%. 25 mM Hepes-KOH (pH=7.1), 25 mM KCl, 2 mM MgCl2, 2 mM ATP, 4 mM ^14C-labeled glucose (Muromachi Yakuhin) and 1 mM DTT (dithiothreitol) were further added at the indicated final concentrations, respectively. Finally, human liver GK was added at 0.24 microgram per well and the reaction was started. The reaction was carried out at room temperature.
After 20 minutes, AG1-X4 resin (BioRad) suspended in 25 mM Hepes-KOH (pH=7.1) was added and the reaction product, labeled glucose 6-phosphate, was allowed to bind thereto. The whole volume was transferred to MultiScreen plates (Millipore) and the resin was washed with water. Thereafter, the labeled glucose 6-phosphate binding to the resin was eluted with a 0.5 M NaCl solution. The labeling activity of the eluted labeled glucose 6-phosphate was measured as an index of GK activity.
The GK activity maximally activated by the test compound was described as maximum activation ability, and the test compound concentration needed to activate 50% of that ability was described as EC50.

EC50 | SMILES
500 to 3000 nM | O=C1CCC(CC(c2ccc(C(F)F)cc2)c2ccc(C3CC3)c(=O)[nH]2)N1 (single isomer, unassigned) [Example 4-340, 3-Cyclopropyl-6-[1-[4-(difluoromethyl)phenyl]-2-(5-oxopyrrolidin-2-yl)ethyl]pyridin-2(1H)-one]
3000 to 10000 nM | O=C1CCC(CC(c2ccc(C(F)F)cc2)c2ccc(C3CC3)c(=O)[nH]2)N1 (single isomer, unassigned) [Example 4-341, 3-Cyclopropyl-6-[1-[4-(difluoromethyl)phenyl]-2-(5-oxopyrrolidin-2-yl)ethyl]pyridin-2(1H)-one]
10 to 500 nM | O=C1CC[C@H](CC(c2ccc(S(=O)(=O)C3CC3)c(Cl)c2)c2ccc(C3CC3)c(=O)[nH]2)N1 (single isomer, unassigned) [Example 4-342]
3000 to 10000 nM | O=C1CC[C@H](CC(c2ccc(S(=O)(=O)C3CC3)c(Cl)c2)c2ccc(C3CC3)c(=O)[nH]2)N1 (single isomer, unassigned) [Example 4-343]
10 to 500 nM | O=C1CC[C@H](CC(c2ccc(OC3CC3)c(Cl)c2)c2ccc(C3CC3)c(=O)[nH]2)N1 (single isomer, unassigned) [Example 4-344]
3000 to 10000 nM | O=C1CC[C@H](CC(c2ccc(OC3CC3)c(Cl)c2)c2ccc(C3CC3)c(=O)[nH]2)N1 (single isomer, unassigned) [Example 4-345]
10 to 500 nM | COc1cc(F)c(C(C[C@H]2CCC(=O)N2)c2ccc(C3CC3)c(=O)[nH]2)cc1Cl (single isomer, unassigned) [Example 4-346]
3000 to 10000 nM | COc1cc(F)c(C(C[C@H]2CCC(=O)N2)c2ccc(C3CC3)c(=O)[nH]2)cc1Cl (single isomer, unassigned) [Example 4-347]
500 to 3000 nM | CC(C)Oc1ccc(C(C[C@H]2CCC(=O)N2)c2ccc(C3CC3)c(=O)[nH]2)cc1 (single isomer, unassigned) [Example 4-348]
10 to 500 nM | CC(C)Oc1ccc(C(C[C@H]2CCC(=O)N2)c2ccc(C3CC3)c(=O)[nH]2)cc1F (single isomer, unassigned) [Example 4-350]
500 to 3000 nM | CCCOc1ccc(C(C[C@H]2CCC(=O)N2)c2ccc(C3CC3)c(=O)[nH]2)cc1 (single isomer, unassigned) [Example 4-352]
500 to 3000 nM | CCOc1ccc(C(C[C@H]2CCC(=O)N2)c2ccc(C3CC3)c(=O)[nH]2)cc1F (single isomer, unassigned) [Example 4-354]
10 to 500 nM | O=C1CC[C@H](CC(c2ccc(OC(F)F)c(Cl)c2)c2ccc(C3CC3)c(=O)[nH]2)N1 (single isomer, unassigned) [Example 4-356]
3000 to 10000 nM | O=C1CC[C@H](CC(c2ccc(OC(F)F)c(Cl)c2)c2ccc(C3CC3)c(=O)[nH]2)N1 (single isomer, unassigned) [Example 4-357]
500 to 3000 nM | CC(C)(C)c1ccc(C(CCN2CCOC2=O)c2ccc(Cl)c(=O)[nH]2)cc1 (single isomer, unassigned) [Example 6-29, 6-[1-(4-tert-Butylphenyl)-3-(2-oxo-1,3-oxazolidin-3-yl)propyl]-3-chloropyridin-2(1H)-one]

Further lines, the compound ahead of its results:

SMILES | EC50
CSc1ccc(/C(=C\C2CCCC2)c2ccc(Cl)c(=O)[nH]2)cc1 [Example 1-1, 3-Chloro-6-{(E)-2-Cyclopentyl-1-[4-(methylsulfanyl)phenyl]ethenyl}pyridin-2(1H)-one] | 500 to 3000 nM
CS(=O)(=O)c1ccc(/C(=C\C2CCCC2)c2ccc(Cl)c(=O)[nH]2)cc1 [Example 1-2, 3-Chloro-6-{(E)-2-Cyclopentyl-1-[4-(methylsulfonyl)phenyl]ethenyl}pyridin-2(1H)-one] | 500 to 3000 nM
CSc1ccc(/C(=C\C2CCCC2)c2ccc(C(C)C)c(=O)[nH]2)cc1 [Example 1-3, 6-{(E)-2-Cyclopentyl-1-[4-(methylsulfanyl)phenyl]ethenyl}-3-(propan-2-yl)pyridin-2(1H)-one] | 10 to 500 nM
CC(C)c1ccc(/C(=C/C2CCCC2)c2ccc(S(C)(=O)=O)cc2)[nH]c1=O [Example 1-4, 6-{(E)-2-Cyclopentyl-1-[4-(methylsulfonyl)phenyl]ethenyl}-3-(propan-2-yl)pyridin-2(1H)-one] | 10 to 500 nM
CSc1ccc(/C(=C\C2CCCC2)c2ccc(C3CC3)c(=O)[nH]2)cc1 [Example 1-5, 6-{(E)-2-Cyclopentyl-1-[4-(methylsulfanyl)phenyl]ethenyl}-3-cyclopropylpyridin-2(1H)-one] | 10 to 500 nM
CS(=O)(=O)c1ccc(/C(=C\C2CCCC2)c2ccc(C3CC3)c(=O)[nH]2)cc1 [Example 1-6, 6-{(E)-2-Cyclopentyl-1-[4-(methylsulfonyl)phenyl]ethenyl}-3-cyclopropylpyridin-2(1H)-one] | 10 to 500 nM
CSc1ccc(/C(=C\C2CCCC2)c2ccc(C)c(=O)[nH]2)cc1 [Example 1-7, 6-{(E)-2-Cyclopentyl-1-[4-(methylsulfanyl)phenyl]ethenyl}-3-methylpyridin-2(1H)-one] | 10 to 500 nM
Cc1ccc(/C(=C/C2CCCC2)c2ccc(S(C)(=O)=O)cc2)[nH]c1=O [Example 1-8, 6-{(E)-2-Cyclopentyl-1-[4-(methylsulfonyl)phenyl]ethenyl}-3-methylpyridin-2(1H)-one] | 500 to 3000 nM
CCSc1ccc(/C(=C\C2CCCC2)c2ccc(C)c(=O)[nH]2)cc1 [Example 1-9, 6-{(E)-2-Cyclopentyl-1-[4-(ethylsulfanyl)phenyl]ethenyl}-3-methylpyridin-2(1H)-one] | 10 to 500 nM
CCS(=O)(=O)c1ccc(/C(=C\C2CCCC2)c2ccc(C)c(=O)[nH]2)cc1 [Example 1-10, 6-{(E)-2-Cyclopentyl-1-[4-(ethylsulfonyl)phenyl]ethenyl}-3-methylpyridin-2(1H)-one] | 10 to 500 nM
Cc1ccc(/C(=C/C2CCCC2)c2ccc(S(=O)(=O)C3CC3)cc2)[nH]c1=O [Example 1-11, 6-{(E)-2-Cyclopentyl-1-[4-(cyclopropylsulfonyl)phenyl]ethenyl}-3-methylpyridin-2(1H)-one] | 10 to 500 nM
CCc1ccc(/C(=C/C2CCCC2)c2ccc(SCCCO)cc2)[nH]c1=O [Example 1-12, 6-[(E)-2-Cyclopentyl-1-{4-[(3-hydroxypropyl)sulfanyl]phenyl}ethenyl]-3-ethylpyridin-2(1H)-one] | 10 to 500 nM
CCc1ccc(/C(=C/C2CCCC2)c2ccc(S(=O)(=O)CCCO)cc2)[nH]c1=O [Example 1-13, 6-[(E)-2-Cyclopentyl-1-{4-[(3-hydroxypropyl)sulfonyl]phenyl}ethenyl]-3-ethylpyridin-2(1H)-one] | 10 to 500 nM
Cc1ccc(/C(=C/C2CCCC2)c2ccc(S(=O)(=O)N(C)C)cc2)[nH]c1=O [Example 1-14, 4-[(E)-2-Cyclopentyl-1-(5-methyl-6-oxo-1,6-dihydropyridin-2-yl)ethenyl]-N,N-dimethylbenzenesulfonamide] | 10 to 500 nM
Cc1ccc(/C(=C/C2CCCC2)c2ccc(S(=O)(=O)N(C)CCO)cc2)[nH]c1=O [Example 1-15, 4-[(E)-2-Cyclopentyl-1-(5-methyl-6-oxo-1,6-dihydropyridin-2-yl)ethenyl]-N-(2-hydroxyethyl)-N-methylbenzenesulfonamide] | 10 to 500 nM
CCc1ccc(/C(=C/C2CCCC2)c2ccc(OC)c(Cl)c2)[nH]c1=O [Example 1-16, 6-[(E)-1-(3-Chloro-4-methoxyphenyl)-2-cyclopentylethenyl]-3-ethylpyridin-2(1H)-one] | 10 to 500 nM
CCOc1ccc(/C(=C\C2CCCC2)c2ccc(CC)c(=O)[nH]2)cc1Cl [Example 1-17, 6-[(E)-1-(3-Chloro-4-ethoxyphenyl)-2-cyclopentylethenyl]-3-ethylpyridin-2(1H)-one] | 10 to 500 nM
CSc1ccc(/C(=C\C2CCCC2)c2ccc(C)c(=O)[nH]2)cc1Cl [Example 1-18, 6-{(E)-1-[3-Chloro-4-(methylsulfanyl)phenyl]-2-cyclopentylethenyl}-3-methylpyridin-2(1H)-one] | 10 to 500 nM
Cc1ccc(/C(=C/C2CCCC2)c2ccc(S(C)(=O)=O)c(Cl)c2)[nH]c1=O [Example 1-19, 6-{(E)-1-[3-Chloro-4-(methylsulfonyl)phenyl]-2-cyclopentylethenyl}-3-methylpyridin-2(1H)-one] | 10 to 500 nM
CCc1ccc(/C(=C/C2CCCC2)c2ccc(SC)c(Cl)c2)[nH]c1=O [Example 1-20, 6-{(E)-1-[3-Chloro-4-(methylsulfanyl)phenyl]-2-cyclopentylethenyl}-3-ethylpyridin-2(1H)-one] | 10 to 500 nM
